The values below come from patent publication EP0326331B1, “Substituted quinolines and cinnolines” (Dow AgroSciences LLC, priority 1988, dated 1989).

What all share (type): in vivo
Assay [1] deals with Erysiphe graminis tritici (powdery mildew). In words: Test 1 greenhouse foliar spray screen, powdery mildew on wheat. To be noted: disease control rating, foliar spray on wheat, 400 ppm (+++ at 100 ppm).
For assay [2], the system named is Pyricularia oryzae (rice blast). The assay can be described thus: whole plant or invertebrate. To be noted: disease control rating, foliar spray on rice, 400 ppm (+++ at 100 ppm).
Assay [3] relates to Puccinia recondita tritici (leaf rust). In words: Test 1 greenhouse foliar spray screen, leaf rust on wheat. To be noted: disease control rating, foliar spray on wheat, 400 ppm (+++ at 100 ppm).
In assay [4] the test system is Botrytis cinerea (gray mold). The assay can be described thus: Test 1 greenhouse foliar spray screen, gray mold on grape berries. To be noted: disease control rating, spray on grape berries, 400 ppm (+++ at 100 ppm).
The test system of assay [5] is Pseudoperonospora cubensis (downy mildew). The assay can be described thus: Test 1 greenhouse foliar spray screen, downy mildew on squash. The following applies: disease control rating, foliar spray on squash, 400 ppm (+++ at 100 ppm).
Assay [6] has as its system southern armyworm (Spodopetra eridania Cramer). In words: Mite/insect screen, SAW. To be noted: Spodoptera eridania, percent mortality, SAW, read-out: SAW RESULTS %; for mortality at 400 ppm: SM & MA RATE 400 PPM; for mortality at 200 ppm: SM & MA RATE 200 PPM. The protocol:
(§1) The compounds of Examples 1-295 were tested for miticidal and insecticidal activity in the following mite/insect screen.
(§2) Each test compound was formulated by dissolving the compound in acetone/alcohol (50:50) mixture containing 23 g of "TOXIMUL R" (sulfonate/nonionic emulsifier blend) and 13 g of "TOXIMUL S" (sulfonate/nonionic emulsifier blend) per liter. These mixtures were then diluted with water to give the indicated concentrations.
(§3) Other plants in the same treatment pot were left uninfested. The leaves were then sprayed with 5 ml of test solution using a DeVilbiss atomizing sprayer at 10 psi. Both surfaces of the leaves were covered until runoff, and then allowed to dry for one hour. Two uninfested leaves were then excised and placed into a Petri dish containing southern armyworm (Spodopetra eridania Cramer).
(§4) After standard exposure periods, percent mortality was evaluated. […]

Assay [7] has as its system Twospotted spider mites (Tetranychus urticae Koch). The assay can be described thus: Mite/insect screen, SM. To be noted: for mortality at 400 ppm / mortality at 200 ppm: Tetranychus urticae, percent mortality, SAW, read-out: SM RESULTS %; for mortality at 400 ppm: SM & MA RATE 400 PPM; for mortality at 200 ppm: SM & MA RATE 200 PPM. The method, then:
as §1, §2, §3, §4

Assay [8] deals with melon aphids (Aphis gossypii Glover). The assay can be described thus: Mite/insect screen, MA. The following applies: Aphis gossypii, percent mortality, SAW, read-out: MA RESULTS %; for mortality at 400 ppm: SM & MA RATE 400 PPM; for mortality at 200 ppm: SM & MA RATE 200 PPM. The method, then: as §1, §2, §3, §4
Assay [9] relates to corn rootworm. In words: Mite/insect screen, CRW. To be noted: percent mortality, read-out: CRW RESULTS %; for mortality at 24 ppm: CRW RATE 24.00 PPM; for mortality at 12 ppm: CRW RATE 12.00 PPM. The protocol: as §1, §2, §4

With `Fc1cccc2c(NCCc3ccccc3Oc3ccccc3)ccnc12` [Example 63, 8-fluoro-N-[2-(2-phenoxyphenyl)ethyl]-4-quinolinamine], the “POWD MDEW” value in assay [1] is recorded as “- (0-19% control at 400 ppm)”. The “RICE BLAST” value in [2] was “+ (20-89% control at 400 ppm)”. The “LEAF RUST” value in assay [3] is “+++ (90-100% control at 100 ppm)”. The “GRAY MOLD” value in assay [4] was “- (0-19% control at 400 ppm)”. Besides, in [5], the “DOWN MDEW” value is “++ (90-100% control at 400 ppm)”. The mortality at 400 ppm in assay [6], in [7] and in assay [8] was 0% each time. For the same compound, the mortality at 24 ppm in assay [9] stood at 0%.

For `Cc1ccc2c(NCCc3ccccc3Oc3ccccc3)ccnc2c1C` [Example 64, 7,8-dimethyl-N-[2-(2-phenoxyphenyl)ethyl]-4-quinolinamine], the “POWD MDEW” value in [1] is “+ (20-89% control at 400 ppm)”. In assay [2], the “RICE BLAST” value is recorded as “- (0-19% control at 400 ppm)”. The “LEAF RUST” value in assay [3] was “+ (20-89% control at 400 ppm)”. Also, in assay [4], the “GRAY MOLD” value is “- (0-19% control at 400 ppm)”. Also, in [5], the “DOWN MDEW” value is “+++ (90-100% control at 100 ppm)”. In addition, in assay [6], the mortality at 200 ppm came out at 60% and the mortality at 400 ppm worked out at 0%. Further, in assay [7], the mortality at 200 ppm was 0% and the mortality at 400 ppm stood at 0%. Also, in assay [8], the mortality at 200 ppm amounted to 0% and the mortality at 400 ppm came to 0%. Also, in assay [9], the mortality at 12 ppm is 0% and the mortality at 24 ppm came out at 0%.

Consider `Clc1ccc(CCNc2ccnc3c(Cl)cccc23)cc1` [Example 85, 8-chloro-N-[2-(4-chlorophenyl)ethyl]-4-quinolinamine], for which the “POWD MDEW” value in assay [1] is on record as “- (0-19% control at 400 ppm)”. In addition, the “RICE BLAST” value in [2] is given as “- (0-19% control at 400 ppm)”. Moreover, the “LEAF RUST” value in assay [3] is “+ (20-89% control at 400 ppm)”. Further, the “GRAY MOLD” value in [4] is “- (0-19% control at 400 ppm)”. The “DOWN MDEW” value in [5] is given as “- (0-19% control at 400 ppm)”. The mortality at 200 ppm in assay [6], in [7] and in assay [8] was 0% in each case. Further, the mortality at 400 ppm in [6], in assay [7] and in assay [8] was 0% each time. Further, the mortality at 12 ppm in assay [9] came to 0%. In assay [9], the mortality at 24 ppm turned out to be 0%.

For `FC(F)(F)c1cccc2c(NCCc3ccc(Cl)cc3)ccnc12` [Example 86, N-[2-(4-chlorophenyl)ethyl]-8-(trifluoromethyl)-4-quinolinamine], the “POWD MDEW” value in assay [1] was “- (0-19% control at 400 ppm)”. Also, in assay [2], the “RICE BLAST” value is listed as “- (0-19% control at 400 ppm)”. For the same compound, in [3], the “LEAF RUST” value is “+ (20-89% control at 400 ppm)”. Also, in assay [4], the “GRAY MOLD” value is “- (0-19% control at 400 ppm)”. Also, the “DOWN MDEW” value in [5] is “+ (20-89% control at 400 ppm)”. Also, in assay [6], the mortality at 200 ppm came out at 0% and the mortality at 400 ppm amounted to 0%. Also, in assay [7], the mortality at 200 ppm stood at 0% and the mortality at 400 ppm was found to be 0%. Also, in [8], the mortality at 200 ppm was determined as 0% and the mortality at 400 ppm is 0%. For the same compound, in [9], the mortality at 12 ppm came out at 0% and the mortality at 24 ppm stood at 0%.

`Fc1cccc2c(NCCc3ccc(Oc4ccccc4)cc3)ccnc12` [Example 90, 8-fluoro-N-[2-(4-phenoxyphenyl)ethyl]-4-quinolinamine]: the “POWD MDEW” value in [1] was “- (0-19% control at 400 ppm)”. Besides, the “RICE BLAST” value in [2] is given as “+++ (90-100% control at 100 ppm)”. Besides, the “LEAF RUST” value in assay [3] is listed as “+++ (90-100% control at 100 ppm)”. Also, the “GRAY MOLD” value in assay [4] is on record as “- (0-19% control at 400 ppm)”. In assay [5], the “DOWN MDEW” value is given as “+++ (90-100% control at 100 ppm)”. In addition, the mortality at 200 ppm in assay [6] was 100%; in assay [7], 80%; in assay [8], 80%. Moreover, the mortality at 400 ppm in [6], in assay [7] and in [8] was 0% each time. The activity as miticides result in assay [7] (summary statement in the description) is listed as “particularly excellent activity”. Moreover, the mortality at 12 ppm in assay [9] amounted to 0%. In addition, the mortality at 24 ppm in assay [9] came to 0%.
